Active and inactive are the calls of the source.
Key:
[1] = growth induction of Burl-1 ts yeast mutant, dose response, counter-screen for SUMOylation pathway inhibitor project, whole organism, S. cerevisiae, luminescence (AID 463199); format: functional
Large T antigen = Large T antigen (Simian virus 40, UniProt P03070); format: functional, Betapolyomavirus macacae;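 note: Confirmatory-stage PubChem screen for compounds that inhibit SV40 T antigen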
[2] = biological target: T1, Intestinal-type alkaline phosphatase (Mus musculus, UniProt P24822); assay: PubChem AID 488874; format: functional
T1 sequence (P24822 whole entry): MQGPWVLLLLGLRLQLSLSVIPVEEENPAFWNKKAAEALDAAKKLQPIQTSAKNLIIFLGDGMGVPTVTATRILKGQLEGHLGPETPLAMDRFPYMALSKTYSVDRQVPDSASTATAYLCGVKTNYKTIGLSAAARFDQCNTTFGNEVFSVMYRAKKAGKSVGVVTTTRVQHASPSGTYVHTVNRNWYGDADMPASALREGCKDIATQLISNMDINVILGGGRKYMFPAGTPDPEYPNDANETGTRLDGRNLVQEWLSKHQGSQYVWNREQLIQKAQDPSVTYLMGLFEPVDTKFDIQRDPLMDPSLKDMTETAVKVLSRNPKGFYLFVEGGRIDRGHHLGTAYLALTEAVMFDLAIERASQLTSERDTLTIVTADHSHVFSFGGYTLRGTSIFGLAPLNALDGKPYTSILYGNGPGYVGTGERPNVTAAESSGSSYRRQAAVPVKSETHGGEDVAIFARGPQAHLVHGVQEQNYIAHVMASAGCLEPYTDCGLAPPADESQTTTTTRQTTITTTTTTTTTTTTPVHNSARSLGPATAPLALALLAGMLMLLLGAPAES

[3] = biological target: T2, Intestinal-type alkaline phosphatase (Homo sapiens, UniProt P09923); assay: human IAP inhibitors, dose response, biochemical, luminescent, uHTS hits, set 2 (AID 488793); format: functional
T2 sequence (P09923 whole entry): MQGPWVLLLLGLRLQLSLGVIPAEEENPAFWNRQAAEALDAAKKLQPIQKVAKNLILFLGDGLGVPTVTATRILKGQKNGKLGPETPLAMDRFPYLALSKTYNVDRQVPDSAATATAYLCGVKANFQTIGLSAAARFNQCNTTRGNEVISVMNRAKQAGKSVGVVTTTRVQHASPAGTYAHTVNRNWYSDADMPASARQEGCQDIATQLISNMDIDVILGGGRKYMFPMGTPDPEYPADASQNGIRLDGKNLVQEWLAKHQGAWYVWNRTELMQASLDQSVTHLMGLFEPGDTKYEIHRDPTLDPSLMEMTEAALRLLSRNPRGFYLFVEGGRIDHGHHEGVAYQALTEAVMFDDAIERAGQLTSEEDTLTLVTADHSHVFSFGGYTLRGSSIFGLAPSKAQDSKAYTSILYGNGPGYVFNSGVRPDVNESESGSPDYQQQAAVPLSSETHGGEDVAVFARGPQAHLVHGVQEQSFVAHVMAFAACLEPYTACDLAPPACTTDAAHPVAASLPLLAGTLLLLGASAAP

[4] = biological target: T2, Intestinal-type alkaline phosphatase; assay: Dose Response confirmation of uHTS hits from a small molecule inhibitors of human intestinal alkaline phosphatase via a luminescent assay. [Related pubchem assays (depositor defined):AID2544, AID2574]; format: functional
[5] = biological target: T2, Intestinal-type alkaline phosphatase; assay: activation of human intestinal alkaline phosphatase – biochemical, dose response (AID 488873); format: functional
[6] = biological target: T1, Intestinal-type alkaline phosphatase; assay: PubChem AID 488785; format: functional
[7] = biological target: T3, Alkaline phosphatase, tissue-nonspecific isozyme (Homo sapiens, UniProt P05186); assay: TNAP enzyme inhibition by screening hits, dose response, selectivity assay for mouse IAP inhibitor project, biochemical, human TNAP, uHTS hits (AID 488906); format: functional
T3 sequence (P05186 whole entry): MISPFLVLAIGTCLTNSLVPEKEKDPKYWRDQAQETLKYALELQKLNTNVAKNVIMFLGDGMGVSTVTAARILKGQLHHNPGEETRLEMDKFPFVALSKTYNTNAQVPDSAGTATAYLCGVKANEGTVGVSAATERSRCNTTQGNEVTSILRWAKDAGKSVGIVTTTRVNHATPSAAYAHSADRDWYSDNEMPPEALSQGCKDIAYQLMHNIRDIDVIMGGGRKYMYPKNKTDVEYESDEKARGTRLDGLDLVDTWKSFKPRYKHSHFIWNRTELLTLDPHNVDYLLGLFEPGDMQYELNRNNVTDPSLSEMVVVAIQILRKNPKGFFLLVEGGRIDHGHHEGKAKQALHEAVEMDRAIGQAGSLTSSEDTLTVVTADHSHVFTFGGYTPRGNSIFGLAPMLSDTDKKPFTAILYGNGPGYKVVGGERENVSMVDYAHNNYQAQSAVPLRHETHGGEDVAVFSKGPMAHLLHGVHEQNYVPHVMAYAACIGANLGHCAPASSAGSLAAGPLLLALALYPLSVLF

[8] = biological target: T3, Alkaline phosphatase, tissue-nonspecific isozyme; assay: inhibition of tissue-nonspecific alkaline phosphatase – biochemical, dose response (AID 488882); format: functional
Cytochrome P450 1A2 = biological target: T4, Cytochrome P450 1A2 (Homo sapiens, UniProt P05177);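 note: PubChem cytochrome P450 panel assay, CYP1A2 panel member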
T4 sequence (P05177 whole entry): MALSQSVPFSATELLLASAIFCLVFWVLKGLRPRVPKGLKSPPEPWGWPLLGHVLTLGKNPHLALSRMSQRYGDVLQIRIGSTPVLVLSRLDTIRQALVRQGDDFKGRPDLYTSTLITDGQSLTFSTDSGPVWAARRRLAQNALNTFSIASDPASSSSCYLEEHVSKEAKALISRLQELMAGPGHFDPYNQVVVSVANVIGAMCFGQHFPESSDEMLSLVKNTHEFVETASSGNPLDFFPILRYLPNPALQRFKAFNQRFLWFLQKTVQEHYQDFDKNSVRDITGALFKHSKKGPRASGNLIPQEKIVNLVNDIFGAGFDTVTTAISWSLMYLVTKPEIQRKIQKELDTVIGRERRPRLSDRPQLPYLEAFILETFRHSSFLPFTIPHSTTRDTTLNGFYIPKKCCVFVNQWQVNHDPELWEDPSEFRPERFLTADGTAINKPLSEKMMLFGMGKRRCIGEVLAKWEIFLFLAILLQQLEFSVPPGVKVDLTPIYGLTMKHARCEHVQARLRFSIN

[9] = biological target: Eukaryotic translation initiation factor 4H (Homo sapiens, UniProt Q15056); assay: human eIF4H binding inhibitors, primary screen, translation initiation inhibitor project, biochemical, uHTS, fluorescence polarization (AID 2012)
[10] = insulin promoter down-regulators in MIN6 cells, imaging, high-content screening, mouse beta cells (AID 1628); format: functional
[11] = cytotoxicity in MIN6 insulinoma cells, dose response, cytotoxicity control, cell-based, mouse insulinoma (AID 2122); format: functional;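 note: confirmatory high-throughput counterscreen run to flag cytotoxic compounds; mouse MIN-6 beta cells carrying an insulin promoter eGFP reporter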
[12] = biological target: Polyadenylate-binding protein 1 (Homo sapiens, UniProt P11940); assay: PABP poly(A) RNA binding inhibitors, primary screen, biochemical, fluorescence polarization, uHTS (AID 2014)
Chain of Polyadenylate-binding protein 1 (P11940 whole entry): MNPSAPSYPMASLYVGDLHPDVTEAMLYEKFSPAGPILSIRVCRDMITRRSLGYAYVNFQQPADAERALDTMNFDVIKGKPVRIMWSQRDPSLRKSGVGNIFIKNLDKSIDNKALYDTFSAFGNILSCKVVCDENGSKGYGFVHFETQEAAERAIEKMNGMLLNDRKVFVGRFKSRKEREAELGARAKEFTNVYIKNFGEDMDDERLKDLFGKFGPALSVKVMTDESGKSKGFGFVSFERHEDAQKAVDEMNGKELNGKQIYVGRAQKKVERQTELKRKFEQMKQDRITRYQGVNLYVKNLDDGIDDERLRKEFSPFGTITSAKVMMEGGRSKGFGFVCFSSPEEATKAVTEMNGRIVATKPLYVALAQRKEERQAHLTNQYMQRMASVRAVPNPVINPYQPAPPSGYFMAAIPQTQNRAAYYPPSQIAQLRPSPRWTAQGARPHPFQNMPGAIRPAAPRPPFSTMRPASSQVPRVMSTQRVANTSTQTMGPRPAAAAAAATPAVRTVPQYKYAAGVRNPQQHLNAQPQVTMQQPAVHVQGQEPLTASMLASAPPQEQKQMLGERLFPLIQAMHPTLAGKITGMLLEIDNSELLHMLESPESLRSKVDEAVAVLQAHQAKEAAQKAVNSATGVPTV

[13] = biological target: DNA dC->dU-editing enzyme APOBEC-3A (Homo sapiens, UniProt P31941); assay: Dose Response confirmation of small molecule APOBEC3A DNA Deaminase Inhibitors via a fluorescence-based single-stranded DNA deaminase assay. [Related pubchem assays (depositor defined):AID493011, AID493024]; format: functional
Chain of DNA dC->dU-editing enzyme APOBEC-3A (P31941 whole entry): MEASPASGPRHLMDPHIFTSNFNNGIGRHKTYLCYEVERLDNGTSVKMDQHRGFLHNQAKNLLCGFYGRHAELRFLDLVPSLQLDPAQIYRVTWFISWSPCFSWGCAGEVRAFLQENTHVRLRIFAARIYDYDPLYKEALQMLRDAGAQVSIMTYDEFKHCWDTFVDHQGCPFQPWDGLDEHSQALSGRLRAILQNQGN

[14] = biological target: DNA dC->dU-editing enzyme APOBEC-3G (Homo sapiens, UniProt Q9HC16); format: functional;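 note: Dose-response counterscreen measuring inhibition of APOBEC3G DNA deaminase activity, run while confirming APOBEC3A inhibitors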
Chain of DNA dC->dU-editing enzyme APOBEC-3G (Q9HC16 whole entry): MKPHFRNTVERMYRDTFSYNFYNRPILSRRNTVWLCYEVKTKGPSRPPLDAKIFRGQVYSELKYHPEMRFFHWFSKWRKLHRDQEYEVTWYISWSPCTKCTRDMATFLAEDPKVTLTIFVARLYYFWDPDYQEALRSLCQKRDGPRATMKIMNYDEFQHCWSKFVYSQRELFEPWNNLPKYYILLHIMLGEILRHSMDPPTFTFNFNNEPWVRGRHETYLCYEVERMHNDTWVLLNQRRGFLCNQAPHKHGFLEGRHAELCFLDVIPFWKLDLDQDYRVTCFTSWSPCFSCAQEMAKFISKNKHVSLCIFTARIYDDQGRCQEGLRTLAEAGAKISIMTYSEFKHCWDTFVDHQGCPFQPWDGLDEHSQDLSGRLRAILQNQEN

[15] = biological target: Lysine-specific demethylase 4A (Homo sapiens, UniProt O75164); assay: JMJD2A histone demethylase inhibitors, dose response, selectivity assay for GASC-1 inhibitor project, biochemical, DELFIA europium, cherry-picked samples (AID 488840)
[16] = biological target: Lysine-specific demethylase 4C (Homo sapiens, UniProt Q9H3R0); assay: GASC-1 (JMJD2C) histone demethylase inhibitors, dose response, biochemical, DELFIA europium, cherry-picked samples (AID 488835); format: functional
Chain of Lysine-specific demethylase 4C (Q9H3R0 whole entry): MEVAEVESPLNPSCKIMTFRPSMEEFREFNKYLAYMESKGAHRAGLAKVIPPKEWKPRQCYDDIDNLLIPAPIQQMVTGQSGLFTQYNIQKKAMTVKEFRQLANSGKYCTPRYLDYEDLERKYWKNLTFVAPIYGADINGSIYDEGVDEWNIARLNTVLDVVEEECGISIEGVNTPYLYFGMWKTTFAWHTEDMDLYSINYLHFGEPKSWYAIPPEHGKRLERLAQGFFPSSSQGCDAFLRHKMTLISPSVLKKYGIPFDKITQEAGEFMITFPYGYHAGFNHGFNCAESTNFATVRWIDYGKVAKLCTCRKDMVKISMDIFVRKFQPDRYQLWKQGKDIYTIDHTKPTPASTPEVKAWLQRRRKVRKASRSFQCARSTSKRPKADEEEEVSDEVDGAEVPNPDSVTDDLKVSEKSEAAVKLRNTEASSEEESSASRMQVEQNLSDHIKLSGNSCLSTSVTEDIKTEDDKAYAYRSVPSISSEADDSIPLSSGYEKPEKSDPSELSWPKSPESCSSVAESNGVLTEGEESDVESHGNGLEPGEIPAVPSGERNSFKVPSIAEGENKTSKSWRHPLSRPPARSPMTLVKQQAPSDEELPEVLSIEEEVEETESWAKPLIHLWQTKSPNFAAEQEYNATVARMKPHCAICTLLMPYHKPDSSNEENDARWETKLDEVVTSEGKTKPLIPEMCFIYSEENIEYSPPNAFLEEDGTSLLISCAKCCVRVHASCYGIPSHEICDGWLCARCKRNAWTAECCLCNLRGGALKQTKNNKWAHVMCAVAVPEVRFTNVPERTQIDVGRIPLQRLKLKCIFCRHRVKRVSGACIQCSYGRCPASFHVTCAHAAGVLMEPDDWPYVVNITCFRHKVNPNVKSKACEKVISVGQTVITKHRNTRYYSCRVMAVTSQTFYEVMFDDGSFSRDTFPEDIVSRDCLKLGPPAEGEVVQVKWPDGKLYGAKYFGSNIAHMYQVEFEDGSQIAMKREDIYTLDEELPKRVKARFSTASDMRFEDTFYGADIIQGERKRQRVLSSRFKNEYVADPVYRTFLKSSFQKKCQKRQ

[17] = biological target: T5, Replicative DNA helicase DnaB (Mycobacterium tuberculosis, UniProt P9WMR3); assay: DnaB intein splicing inhibitors, dose response, biochemical, cell-free fluorescence (AID 449749); format: functional
T5 sequence (P9WMR3 whole entry): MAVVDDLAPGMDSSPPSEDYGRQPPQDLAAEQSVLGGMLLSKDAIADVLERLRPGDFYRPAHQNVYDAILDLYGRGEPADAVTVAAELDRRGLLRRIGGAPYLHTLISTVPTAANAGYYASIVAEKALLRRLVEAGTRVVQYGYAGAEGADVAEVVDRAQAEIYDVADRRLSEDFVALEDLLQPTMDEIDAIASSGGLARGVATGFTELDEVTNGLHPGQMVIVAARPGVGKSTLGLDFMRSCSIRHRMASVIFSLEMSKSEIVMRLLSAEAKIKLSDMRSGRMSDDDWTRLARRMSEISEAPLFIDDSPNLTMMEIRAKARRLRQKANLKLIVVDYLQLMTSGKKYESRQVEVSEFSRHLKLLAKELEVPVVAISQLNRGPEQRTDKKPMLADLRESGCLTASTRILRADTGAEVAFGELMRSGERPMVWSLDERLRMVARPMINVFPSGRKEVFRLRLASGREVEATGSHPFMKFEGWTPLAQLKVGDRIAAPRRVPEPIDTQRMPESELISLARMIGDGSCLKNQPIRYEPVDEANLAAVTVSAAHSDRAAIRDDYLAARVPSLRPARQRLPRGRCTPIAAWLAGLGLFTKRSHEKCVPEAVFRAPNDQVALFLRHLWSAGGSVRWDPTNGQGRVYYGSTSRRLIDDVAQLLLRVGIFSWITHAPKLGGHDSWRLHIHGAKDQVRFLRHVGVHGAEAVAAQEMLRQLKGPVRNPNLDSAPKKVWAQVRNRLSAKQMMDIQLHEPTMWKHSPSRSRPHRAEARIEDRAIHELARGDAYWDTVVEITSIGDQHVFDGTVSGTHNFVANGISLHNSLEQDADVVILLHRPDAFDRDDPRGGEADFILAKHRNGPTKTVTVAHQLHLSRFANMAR

Protein RecA = biological target: T6, Protein RecA (Mycobacterium tuberculosis, UniProt P9WHJ3); assay: Fluorescence Cell-Free Homogeneous Dose Retest to Identify Inhibitors of RecA-Intein Splicing Activity. [Related pubchem assays (depositor defined):AID2097, AID2223, AID489010, AID492950]; format: functional
T6 sequence (P9WHJ3 whole entry): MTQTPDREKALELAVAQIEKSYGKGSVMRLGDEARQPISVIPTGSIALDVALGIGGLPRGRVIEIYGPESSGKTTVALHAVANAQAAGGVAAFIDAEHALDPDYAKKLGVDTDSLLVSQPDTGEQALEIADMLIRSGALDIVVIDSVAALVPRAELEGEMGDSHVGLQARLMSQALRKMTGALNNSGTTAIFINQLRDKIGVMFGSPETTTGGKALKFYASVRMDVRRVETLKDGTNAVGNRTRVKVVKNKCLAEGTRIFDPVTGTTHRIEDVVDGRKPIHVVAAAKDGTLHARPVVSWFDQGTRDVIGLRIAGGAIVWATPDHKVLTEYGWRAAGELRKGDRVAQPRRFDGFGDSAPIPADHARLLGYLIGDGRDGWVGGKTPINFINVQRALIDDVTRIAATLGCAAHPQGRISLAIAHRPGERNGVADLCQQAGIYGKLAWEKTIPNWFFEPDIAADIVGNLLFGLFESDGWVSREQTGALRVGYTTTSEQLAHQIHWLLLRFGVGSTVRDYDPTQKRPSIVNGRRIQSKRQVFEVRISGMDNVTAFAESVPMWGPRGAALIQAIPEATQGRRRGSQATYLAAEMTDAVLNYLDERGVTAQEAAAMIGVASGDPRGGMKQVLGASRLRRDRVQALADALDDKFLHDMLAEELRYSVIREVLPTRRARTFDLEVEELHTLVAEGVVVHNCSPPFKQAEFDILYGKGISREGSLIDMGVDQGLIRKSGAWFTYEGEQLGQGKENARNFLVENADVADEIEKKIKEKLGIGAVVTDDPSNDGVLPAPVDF

[18] = biological target: T7, Short transient receptor potential channel 4 (Mus musculus, UniProt Q9QUQ5); assay: mouse TRPC4 channel inhibitors, dose response, cell-based, HEK293 TRPC4/mu-opioid, Fluo-4 calcium (AID 434942); format: functional;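 note: potency of inhibitors blocking the TRPC4 calcium response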
T7 sequence (Q9QUQ5 whole entry): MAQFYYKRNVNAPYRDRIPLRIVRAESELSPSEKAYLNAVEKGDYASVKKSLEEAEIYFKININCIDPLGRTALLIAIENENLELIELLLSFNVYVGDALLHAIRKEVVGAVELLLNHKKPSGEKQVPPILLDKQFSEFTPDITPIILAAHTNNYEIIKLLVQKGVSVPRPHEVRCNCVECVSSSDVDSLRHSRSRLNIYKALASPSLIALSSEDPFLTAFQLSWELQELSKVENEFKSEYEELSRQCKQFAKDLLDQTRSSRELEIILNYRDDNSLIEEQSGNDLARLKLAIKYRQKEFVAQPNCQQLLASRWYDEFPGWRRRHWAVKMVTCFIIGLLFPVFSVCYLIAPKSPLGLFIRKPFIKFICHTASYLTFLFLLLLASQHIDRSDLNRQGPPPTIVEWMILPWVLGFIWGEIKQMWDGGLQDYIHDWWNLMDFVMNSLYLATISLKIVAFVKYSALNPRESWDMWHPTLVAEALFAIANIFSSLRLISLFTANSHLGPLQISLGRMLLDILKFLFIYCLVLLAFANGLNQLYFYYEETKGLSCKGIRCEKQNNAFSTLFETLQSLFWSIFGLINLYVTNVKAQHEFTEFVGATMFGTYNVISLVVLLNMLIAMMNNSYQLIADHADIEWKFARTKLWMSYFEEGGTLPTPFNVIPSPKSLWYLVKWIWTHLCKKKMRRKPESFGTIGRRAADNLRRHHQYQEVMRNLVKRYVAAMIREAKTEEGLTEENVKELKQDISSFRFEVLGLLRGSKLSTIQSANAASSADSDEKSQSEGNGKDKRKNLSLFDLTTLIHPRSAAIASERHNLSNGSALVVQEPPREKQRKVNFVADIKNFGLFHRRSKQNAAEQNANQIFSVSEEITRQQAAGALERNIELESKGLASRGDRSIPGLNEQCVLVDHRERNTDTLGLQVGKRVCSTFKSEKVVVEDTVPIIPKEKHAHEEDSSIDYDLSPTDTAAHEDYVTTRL

[19] = biological target: T8, Heat shock factor protein 1 (Mus musculus, UniProt P38532); assay: HSF1 potentiators in luciferase reporter cells, confirmation, cell-based, NIH3T3, luminescence, dose retest (AID 435004); format: functional;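 note: stress induced by proteasome inhibitor MG132 added 30 min after compound; luciferase reporter driven by HSF1 response element in NIH3T3 cells; actives raise luminescence as potentiators of the MG132 stress response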
T8 sequence (P38532 whole entry): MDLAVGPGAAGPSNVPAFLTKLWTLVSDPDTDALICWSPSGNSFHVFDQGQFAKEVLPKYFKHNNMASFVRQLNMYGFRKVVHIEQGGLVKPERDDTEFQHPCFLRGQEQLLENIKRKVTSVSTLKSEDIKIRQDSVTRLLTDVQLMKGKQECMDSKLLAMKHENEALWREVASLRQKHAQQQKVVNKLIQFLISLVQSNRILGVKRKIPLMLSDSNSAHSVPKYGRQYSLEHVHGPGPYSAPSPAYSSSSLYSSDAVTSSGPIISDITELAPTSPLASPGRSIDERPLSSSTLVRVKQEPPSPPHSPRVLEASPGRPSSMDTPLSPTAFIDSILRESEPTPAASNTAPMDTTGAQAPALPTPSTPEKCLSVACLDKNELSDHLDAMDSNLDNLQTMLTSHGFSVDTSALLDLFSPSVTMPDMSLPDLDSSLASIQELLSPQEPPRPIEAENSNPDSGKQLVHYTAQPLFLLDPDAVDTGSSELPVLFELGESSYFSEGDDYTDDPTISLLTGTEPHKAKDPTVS

[20] = biological target: T7, Short transient receptor potential channel 4; assay: SAR Analysis for the identification of selective inhibits of the transient receptor potential cation channel C4 (TRPC4): Automated Electrophysiology. [Related pubchem assays (depositor defined):AID2256]; format: functional

Chain of Large T antigen (P03070 whole entry): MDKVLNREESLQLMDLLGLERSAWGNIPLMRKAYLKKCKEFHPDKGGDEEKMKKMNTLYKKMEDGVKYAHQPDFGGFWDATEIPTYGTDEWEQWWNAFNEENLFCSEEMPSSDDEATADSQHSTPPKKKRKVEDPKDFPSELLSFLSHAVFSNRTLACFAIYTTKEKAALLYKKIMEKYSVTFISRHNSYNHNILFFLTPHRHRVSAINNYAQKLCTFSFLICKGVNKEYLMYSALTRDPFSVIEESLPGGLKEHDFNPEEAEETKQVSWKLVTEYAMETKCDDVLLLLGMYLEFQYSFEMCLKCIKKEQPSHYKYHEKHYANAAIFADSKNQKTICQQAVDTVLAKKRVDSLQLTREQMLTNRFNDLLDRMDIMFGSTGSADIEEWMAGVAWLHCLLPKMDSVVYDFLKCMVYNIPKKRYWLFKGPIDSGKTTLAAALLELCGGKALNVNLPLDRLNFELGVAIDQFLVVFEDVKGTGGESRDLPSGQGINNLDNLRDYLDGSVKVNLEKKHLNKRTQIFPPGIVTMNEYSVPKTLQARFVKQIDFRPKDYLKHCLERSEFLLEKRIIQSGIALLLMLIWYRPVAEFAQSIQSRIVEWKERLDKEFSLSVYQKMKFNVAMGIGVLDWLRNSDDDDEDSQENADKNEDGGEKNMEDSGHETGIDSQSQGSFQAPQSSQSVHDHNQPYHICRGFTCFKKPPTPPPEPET

COc1ccc2[nH]cc(C(=O)C(=O)N3CCCCC3)c2c1
AC50 [1]: 93.6 µM (active)

N#C/C(=C\c1ccc(O)c(O)c1)C(=O)c1ccc(O)c(O)c1
IC50 (Large T antigen): 0.82 µM (active)
IC50 [2]: 0.259 µM (active)
IC50 [3]: 2.68 µM (active)
IC50 [4]: 4.41 µM (active)
EC50 [5]: 6.36 µM (active)
IC50 [6]: 7.13 µM (active)
IC50 [7]: > 100 µM (inactive)
IC50 [8]: 9.49 µM (active)
AC50 (Cytochrome P450 1A2): 31.6 µM (inconclusive)

CCCCCn1ccc(=N)cc1
IC50 [9]: > 100 µM (inactive)
IC50 [10]: 3.31 µM (active)
IC50 [11]: 2.58 µM (active)
IC50 [12]: 2.73 µM (active)
IC50 [13]: 1.3 µM (active)
IC50 [14]: 1.92 µM (active)

O=c1[nH]cc(/N=C/c2cc(Cl)cc(Cl)c2O)c(=O)[nH]1
AC50 [15]: 18.1 µM (active)
AC50 [16]: 0.749 µM (active)
AC50 [17]: 4.92 µM (active)
EC50 (Protein RecA): 4.14 µM (active)

COc1ccc2c(C)cc(N3CCCCCC3)nc2c1
EC50 [18]: 0.531 µM (active)
EC50 [19]: > 260 µM (inactive)
IC50 [20]: 2.38 µM (active)
